# Experimental data published in patent publication US20240269295A1, “C-MET TARGETED APTAMER DRUG CONJUGATE AND METHOD FOR TREATING TUMOR” (Hangzhou Institute of Medicine, Chinese Academy of Sciences, priority 2023, published 2024).
# B1: SL1-MMAE (c-Met-ApDC) (ssDNA)
# DNA: ATCAGGCTGGATGGTAGCTCGGTCGGGGTGGGTGGGTTGGCAAGTCTGAT
# modifications: 3'-thiol conjugated to maleimide vcMMAE
# B2: CLN0004-52-MMAE (ssDNA)
# DNA: GAGTGCGTAATGGTACGATTTGGGAAGTGGCTTGGGGTGGGATTAGTTTTGG
# modifications: 3'-thiol conjugated to maleimide vcMMAE
# Columns and labels:
# [1] = system: large triple-negative breast cancer PDX model tumors; experiment: Experiment against large tumors in vivo (triple-negative breast cancer PDX); design: species or system mice; details: tumor 400-500 mm^3; tail vein, 20 mg/kg once every seven days, two times
# Method: Six mice with a tumor size of 400-500 mm^3 in a triple-negative breast cancer PDX model were randomly divided into two groups. In the experiment, the two groups were injected with a clinical first-line chemotherapy drug Docetaxel, and a c-Met targeted aptamer drug conjugate c-Met-ApDC through the tail vein, respectively at a dosage of 20 mg/kg Docetaxel (administrated once every seven days, for two times in total) or 0.36 mg/kg equivalent of MMAE (administrated once every four days, for three times in total). The weights of the mice, the lengths of tumors (a), and the widths of tumors (b) were measured and recorded at each injection. The calculation formula of tumor volume (V) was: V=(a×b^2)/2. The tumor volume exceeding 1,500 mm^3 or the weight loss exceeding 15% was taken as an endpoint of the experiment. The mice were euthanized, and the experiment was terminated. […] On about seven days of administration, the tumor volume in the group administrated with the chemotherapeutic drug began to increase, while the tumor of the group administrated with the reagent of the present invention began to decrease.
# [2] = system: large triple-negative breast cancer PDX model tumors; experiment: Experiment against large tumors in vivo after multiple times of administration; design: species or system mice; details: Docetaxel alone, 20 mg/kg once every seven days, two times
# Method: Six mice with a tumor size of 400-500 mm^3 in a triple-negative breast cancer PDX model were randomly divided into two groups. In the experiment, the two groups were injected with a clinical first-line chemotherapy drug, Docetaxel and a c-Met targeted aptamer drug conjugate c-Met-ApDC through the tail vein, respectively, at a dosage of 20 mg/kg Docetaxel (administrated once every seven days, for two times in total) or 0.36 mg/kg equivalent of MMAE (administrated once every four days, for three times in total).
# The weights of the mice, the lengths of tumors (a), and the widths of tumors (b) were measured and recorded at each injection. The calculation formula of tumor volume (V) was: V=(a×b^2)/2. The tumor volume exceeding 1,500 mm^3 or the weight loss exceeding 15% was taken as an endpoint of the experiment. The mice were euthanized, and the experiment was terminated. In the group administrated with Docetaxel, 0.36 mg/kg equivalent of MMAE was injected into the mice through the tail vein once every four days continuously for three times after the tumor volume exceeded 1,500 mm^3. […] It was almost less than 200 mm^3 after 44 days.
# [3] = biological target: T1, c-Met (hepatocyte growth factor receptor) (UniProt P08581 P08581:25-932); experiment: SPR; concentrations 100-500 nM
# Method: (§1) The specific experimental process was as follows: the c-Met protein-bound aptamer CLN0004-52 (sequence SEQ: ID2: […]) reported in the literature was selected and modified with a mercapto group at the 3-terminal and then conjugated with vcMMAE to construct the c-Met targeted aptamer drug conjugate CLN0004-52-MMAE. The affinity of CLN0004-52-MMAE and SL1-MMAE with a c-Met protein was characterized by surface plasmon resonance spectroscopy. The binding forces of two c-Met ApDCs were determined at concentrations of 100, 200, 300, 400, and 500 nM. […] Strong affinity stated that it could bind with c-Met more strongly, enhancing the therapeutic effect.
# [4] = biological target: T1, c-Met (hepatocyte growth factor …); experiment: SPR; concentrations 100-500 nM; unit μm [sic]
# Method: as §1
# T1 sequence (P08581 25-932, one chain of several): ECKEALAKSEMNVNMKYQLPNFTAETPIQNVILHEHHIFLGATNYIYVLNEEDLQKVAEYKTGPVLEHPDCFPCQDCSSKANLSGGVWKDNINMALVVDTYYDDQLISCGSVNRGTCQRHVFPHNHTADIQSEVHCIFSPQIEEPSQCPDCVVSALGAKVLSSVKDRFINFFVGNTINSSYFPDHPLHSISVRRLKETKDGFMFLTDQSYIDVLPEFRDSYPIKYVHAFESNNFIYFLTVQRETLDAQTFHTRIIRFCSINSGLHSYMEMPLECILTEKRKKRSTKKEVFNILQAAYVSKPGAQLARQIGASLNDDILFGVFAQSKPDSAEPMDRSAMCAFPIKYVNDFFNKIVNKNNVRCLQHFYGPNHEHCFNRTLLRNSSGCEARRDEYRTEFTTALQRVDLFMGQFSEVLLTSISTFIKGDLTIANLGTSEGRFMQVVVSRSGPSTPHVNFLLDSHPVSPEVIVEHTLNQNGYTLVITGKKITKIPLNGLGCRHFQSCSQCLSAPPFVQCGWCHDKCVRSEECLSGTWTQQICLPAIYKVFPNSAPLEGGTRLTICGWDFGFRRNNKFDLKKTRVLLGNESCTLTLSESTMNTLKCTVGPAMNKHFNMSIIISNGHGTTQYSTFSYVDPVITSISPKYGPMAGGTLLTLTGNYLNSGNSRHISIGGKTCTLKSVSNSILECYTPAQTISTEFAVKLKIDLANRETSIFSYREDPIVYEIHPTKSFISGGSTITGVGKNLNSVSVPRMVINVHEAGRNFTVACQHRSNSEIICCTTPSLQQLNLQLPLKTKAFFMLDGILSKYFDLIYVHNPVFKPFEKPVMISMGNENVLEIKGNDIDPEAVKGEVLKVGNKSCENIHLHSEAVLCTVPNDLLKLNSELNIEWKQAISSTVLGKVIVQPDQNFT
molecule,measurement,setting,value
CC(=O)O[C@@]12CO[C@@H]1C[C@H](O)[C@@]1(C)C(=O)[C@H](O)C3=C(C)[C@@H](OC(=O)[C@H](O)[C@@H](NC(=O)OC(C)(C)C)c4ccccc4)C[C@@](O)([C@@H](OC(=O)c4ccccc4)[C@H]21)C3(C)C [Docetaxel],inhibitory effect on large tumors,[1],no apparent inhibitory effect
same,tumor volume increase,[1],3 times the volume
same,tumor volume course,[2],gradually increased
B1,Kd,[3],0.0775 µM
B2,Kd,[4],21.5 µM
